Assay results from patent US10576069B2, “Treatment for chemotherapy-induced cognitive impairment” (Panacea Pharmaceutical Inc., priority 2013, dated 2020).

Experiments:
[1] = test system: human lung cancer cell line H460; assay: LDH analysis (membrane integrity) of H460 cancer cells; type: cell-based; conditions: H460, 3 days
Procedure: (§1) Cancer Cell Culture. The mouse liver cancer cell line BNLT3 (gift of Dr. Jack Wands, Brown University) and the human lung cancer cell line H460 (ATCC) were seeded into 96-well plates at a density of 4,000 cells/well and cultured at 37° C., 5% CO2, in DMEM (11965, Gibco) supplemented with 10% fetal bovine serum, 20 mM HEPES, 1 mM sodium pyruvate, and […] gentamycin (all reagents came from Gibco).
(§2) Cell Insults and Treatments. Determination of concentration for each anticancer drug in our experiments was based on its reported concentration in human cerebral spinal fluid (CSF) in chemotherapy, literature report of its neurotoxicity in culture, and our preliminary in vitro experimental data. […] For ROS examination, the neurons were insulted with both 100 μM of MTX and 25 μM of 5-FU by 15 d.i.v. PAN-811.Cl.H2O was added to cultures to final concentrations of 1.25, 2.5, 5, and 10 μM at the same time as addition of the anticancer drugs.
(§3) Quantitative Assays and Morphological Assessment. Cell membrane integrity and mitochondrial function of either neurons or cancer cells were measured with LDH and 3-(4,5-dimethylthiazol-2-yl)-5-(3-carboxymethoxyphenyl)-2-(4-sulfophenyl)-2H-tetrazolium [MTS] analyses, respectively. The latter has been used to quantify cell survival. For the LDH assay, a mixture of a 35 μL aliquot of culture supernatant and 17.5 μL of Mixed Substrate, Enzyme and Dye Solutions (Sigma) was incubated at room temperature (RT) for 30 minutes. For the MTS assay, 10 μL of MTS reagent (Promega) was added to a culture well containing neurons in 50 μL of medium. The preparations were incubated at 37° C. for 2 hours. The preparations for both assays were then spectrophotometrically measured at 490 nm using a 96-well plate reader (Mode 550, Bio-Rad). Neuronal cell death was morphologically determined based on the integrity of the cell soma and continuity of neuronal processes. The change in number of cancer cells was judged directly by cell density. Cells were photographed under an inverted phase contrast microscope (IX 70, Olympus) using 10× or 20× objective.
Data Analysis. Data were generated from 4-6 replicate wells, expressed as mean±standard deviation (SD), and statistically evaluated at a significance level of […] with one factor ANOVA or Student's t-test by using software […] (http://vassarstats.net/) followed by the Tukey HSD test. Figure symbols are as follows: #, P<0.05, and ##, P<0.01, compared with control; *, P<0.05, and **, P<0.01, compared with the insulted group; §§, P<0.01, compared with PAN-811 treated group by Student's t-test.

[2] = test system: mouse liver cancer cell line BNLT3; assay: MTS analysis of BNLT3 cancer cells; type: cell-based; conditions: BNLT3, 3 days, 10 μM PAN-811 or both
Procedure: as §1, §2
as §3, with “The preparations were incubated at 37° C. for 2 hours.” left out, “The change in number of cancer cells was judged directly by cell density. Cells were photographed under an inverted phase contrast microscope (IX 70, Olympus) using 10× or 20× objective.” left out
Data Analysis. Data were generated from 4-6 replicate wells, expressed as mean±standard deviation (SD), and statistically evaluated at a significance level of 1% with one factor ANOVA or Student's t-test by using software […] […]

[3] = test system: human lung cancer cell line H460; assay: MTS analysis of H460 cancer cells; type: cell-based; conditions: H460, 3 days; 3.5 μM CDDP, 10 μM PAN-811 or both; FIG. 5(d)
Procedure: as §1
Cell Insults and Treatments. Determination of concentration for each anticancer drug in our experiments was based on its reported concentration in human cerebral spinal fluid (CSF) in chemotherapy, literature report of its neurotoxicity in culture, and our preliminary in vitro experimental data. […]
(§4) Quantitative Assays and Morphological Assessment. Cell membrane integrity and mitochondrial function of either neurons or cancer cells were measured with LDH and 3-(4,5-dimethylthiazol-2-yl)-5-(3-carboxymethoxyphenyl)-2-(4-sulfophenyl)-2H-tetrazolium [MTS] analyses, respectively. The latter has been used to quantify cell survival. […] The preparations for both assays were then spectrophotometrically measured at 490 nm using a 96-well plate reader (Mode 550, Bio-Rad). Neuronal cell death was morphologically determined based on the integrity of the cell soma and continuity of neuronal processes. […]

[4] = test system: mixed cortical and striatal neurons; assay: LDH analysis (cell membrane leakage) of neurons insulted with anticancer drugs; type: cell-based; conditions: MTX 100 μM, 5-FU 25 μM, CDDP 3.5 μM
Procedure: Neuronal Cell Culture. Mixed cortical and striatal neurons from embryonic day 17 male Sprague-Dawley rats (tissue obtained from NIH) were seeded into poly-D-lysine coated 96-well plates at density of 50,000 cells/well and initially cultured at 37° C., 5% CO2, in neurobasal medium (NB) with B27 supplement (Invitrogen) containing full strength of AOs to obtain highly enriched (95%) neurons. Since AOs, including vitamin E, vitamin E acetate, superoxide dismutase (SOD), catalase (CAT), and GSH, are additives to culture medium, reduction of AO concentration in culture medium provides an approach to determine the level of OS involvement in a neurotoxic process. […]
as §4

[5] = test system: hydrogen peroxide-induced LDH release; conditions: PAN-811 at 10 μM; compared with untreated and H2O2-insulted group; cited from earlier work
[6] = test system: MCAo infarct formation, brain edema, mortality; conditions: single i.v. bolus, 2 mg/kg, two-hour MCAo; cited from earlier work
[7] = 25 μM 5-FU, 10 μM PAN-811 or cotreatment, FIG. 5(f)
[8] = 3.5 μM CDDP, 10 μM PAN-811 or both, FIG. 5(g)
[9] = 100 μM MTX or 10 μM PAN-811, FIG. 5(e)

Structure (SMILES) | increase in LDH reading in the culture supernatant [1, 7] [%] | reduction of MTS reading ([2]; 3.5 μM CDDP, FIG. 4(f)) [%] | reduction of MTS reading [3] [%] | LDH increase in culture supernatant (cell membrane leakage) ([4]; neurons in 25% AO, 3 days, FIG. 1(c)) | increase in LDH reading ([4]; neurons, 12.5% AO condition, FIG. 2(b)) | increase in LDH reading in the culture supernatant [1, 8] [%] | increase in LDH reading in the culture supernatant [1, 9] [%] | reduction of MTS reading ([2]; 100 μM MTX, FIG. 4(d)) | maximal protection against hydrogen peroxide-induced LDH release [5] [%] | maximal protection (reduction of infarct volume) [6] [%]
O=c1[nH]cc(F)c(=O)[nH]1 [5-FU, 5-fluorouracil] | 124 | – | – | – | – | – | – | – | – | –
N.N.[Cl][Pt][Cl] [CDDP] | – | 44 | 22 | significant LDH increase | significant increases in LDH reading | 71 | – | – | – | –
CN(Cc1cnc2nc(N)nc(N)c2n1)c1ccc(C(=O)N[C@@H](CCC(=O)O)C(=O)O)cc1 [MTX, methotrexate] | – | – | – | – | – | – | 95 | – | – | –
NC(=S)N/N=C/c1ncccc1N [PAN-811, 3-aminopyridine-2-carboxaldehyde thiosemicarbazone] | 30 | 94 | – | – | – | 30 | 31 | the same level as MTX | 90 | 50
